Test results reported in PMC9656482, “In Vitro and In Vivo Biological Activity of Ruthenium 1,10-Phenanthroline-5,6-dione Arene Complexes” (International Journal of Molecular Sciences, 2022).

How the values were obtained:
[1] = tested on: A2780 ovarian carcinoma cell line; assay: MTS antiproliferative assay, A2780; format: cell-based, human
Description: The cytotoxic potential of the complexes was evaluated by assessing their viability using the 3-(4,5-dimethylthiazol-2-yl)-5-(3-carboxymethoxyphenyl)-2-(4-sulfophenyl)-2H tetrazolium, inner salt (MTS) colorimetric assay in three tumor cell lines—ovarian carcinoma, A2780, colorectal carcinoma, HCT116, and colorectal carcinoma resistant to doxorubicin, HCT116-Dox and in normal human primary dermal fibroblasts (Figure 1 and Figure S7).
Normal dermal human fibroblasts, colorectal carcinoma cell line HCT116 and ovarian carcinoma cell line A2780 were acquired from ATCC (Manassas, VA, USA). […] Fibroblasts and HCT116 cells were cultured in Dulbecco’s modified Eagle medium (DMEM, Thermo Fisher Scientific) and A2780 cell line was cultured on Roswell Park Memorial institute 1640 (RPMI-1640, Thermo Fisher Scientific). Both media were supplemented with 10% (v/v) fetal bovine serum (FBS, Thermo Fisher Scientific) and a mixture of 100 U/mL penicillin and 100 mg/mL streptomycin. The supplemented media are referred to from this point on as DMEM or RPMI for simplicity. […] All experiments underwent at 37 °C, 5% (v/v) CO2 and 99% (v/v) humidity in the dark.
Cells were seeded in a 96-well plate in a density of 7500 cells/well, and after 24 h was submitted to a concentration range between 0.1–50 µM of complexes JHOR10 and JHOR11. DMSO with a 0.1% (v/v) concentration was used as vector control and cisplatin was used as positive control in all replicates. After 48 h incubation, cellular viability was inferred with the Cell Titer 96® Aqueous One solution cell proliferation assay (Promega, Madison, WI, USA) according to the manufacturer’s instructions and procedures previously described [18, 40]. The absorbance of the produced Formazan was quantified with a Tecan microplate reader, Infinite M200 (Tecan, Mannedorf, Switzerland) and the analysis of the dose–response curves to determine the relative IC50 was performed with GraphPad Prism 8.2.1 software (GraphPad Software, La Jolla, CA, USA).

[2] = Stability in DMSO-d6-D2O solution by 1H NMR; format: physicochemical; conditions: DMSO-d6-D2O 3:7 (v/v), 110 mM chloride, 48 h
Description: To evaluate the stability of complexes in a cell culture medium, powdered complexes were first solubilized in DMSO and then immediately in DMEM, in order to guarantee that no more than 0.1% (v/v) DMSO was present in the medium. […] In addition, the stability of the complexes in solution was investigated by ^1H NMR spectroscopy. The ruthenium complexes were dissolved in DMSO-d6-D2O, in a 3:7 ratio (v/v) with a 110 mM chloride concentration, and the ^1H NMR spectra was recorded immediately and after 48 h. […] This observation is in agreement with the M–Cl aquation processes described for several metallic compounds, such as cisplatin [23]. After 48 h, the ^1H NMR spectrum of JHOR10 was unchanged.
The stability of complexes was evaluated in DMEM (Dulbecco’s modified Eagle’s medium). Powdered complexes JHOR10 and JHOR11 were solubilized in DMSO and then immediately diluted in DMEM without phenol red (Thermo Fisher Scientific, Waltham, MA, USA) to a final concentration of 100 µM, assuring that the final concentration of DMSO was not higher than 0.1% (v/v). The UV-visible spectrum was measured after an incubation at 37 °C for 24 or 48 h (DMEM) in a wavelength range between 260 and 800 nm, using a quartz cuvette with 1 cm path length. A total of 2 mg of each compound was dissolved in DMSOd6-D2O 3:7 (v/v) 110 mM chloride concentration (NaCl), and the ^1H NMR were recorded at 0 h and 48 h on a Bruker Avance III 400 MHz.

A2780 cells [3] = assay: Mitochondrial membrane potential (JC-1); format: cell-based, human; conditions: A2780, 48 h, IC50 of JHOR11, relative to vehicle control
Source text: This dye accumulates in the mitochondria of cells, presenting red fluorescence, characteristic of the aggregated form (JC-1 aggregated), in healthy cells, and green fluorescence, characteristic of monomer form (JC-1 monomer), when the mitochondrial membrane is compromised.
The mitochondrial potential was quantified using the JC-1 mitochondrial membrane potential assay kit (Abnova, Taipé, Taiwan) according to manufacturer’s instructions and as previously described. Briefly, 2 × 10^5 A2780 cells were seeded on each well of a 6-well plate and incubated for 48 h with IC50 JHOR11, 0.1% (v/v) DMSO or 3.5 µM cisplatin. Cells with red (JC-1 aggregated) and green (JC-1 monomer) fluorescence were quantified with an Attune acoustic focusing flow cytometer and respective software (Thermo Fisher Scientific), and fluorescence ratios normalized to control samples incubated with DMSO.

A2780 cells [4] = assay: Cell cycle analysis (PI staining); format: cell-based, human; conditions: A2780 synchronized with thymidine; IC50 of JHOR11 or 0.1 µM doxorubicin; 5-32 h, relative to DMSO
Description: To understand if the complex also presents a cytostatic effect, the cell cycle of A2780 cells was analyzed by DNA staining with PI, after double synchronization with thymidine at the S phase.
The cell cycle analysis was performed by DNA staining with PI according to procedures previously described with few modifications. A2780 cells were seeded in 6-well plates in a cell density of 4 × 10^5 cells/well and the cell cycle was synchronized in the S-phase by double blocking with 2 mM thymidine. […] After 5 h, 9 h, 24 h or 32 h, cells were detached, fixed with 80% (v/v) ethanol, incubated with 50 mg/mL RNase A (NZYtech, Lisbon, Portugal) and stained with […] PI (Thermo Fisher Scientific). The fluorescence of each sample was analyzed in an Attune acoustic focusing cytometer and respective software (Thermo Fisher Scientific).

A2780 cells [5] = assay: Senescence assay (beta-galactosidase fluorescence); format: cell-based, human; conditions: A2780, 48 h, IC50 of JHOR11, relative to DMSO
Description: The senescence of A2780 cells after 48 h incubation with IC50 of JHOR11 was also analyzed to add more insights into the mechanism of action of the complex. Premature cellular senescence is an irreversible state of cell cycle arrest that occurs in response to intrinsic and extrinsic insults to the cell that induce DNA damage, oxidative stress, or nutrient depletion. The percentage of senescent cells was measured using the senescence assay kit (Abcam) that allows the quantification of the senescence-associated expression of beta-galactosidase activity by flow cytometry. […] [36].
The cell senescence analysis was performed using the Senescence assay kit (beta galactosidade fluorescence, Abcam, Cambridge, UK) according to the manufacturer’s instruction with few modifications. Briefly, A2780 cells were seeded in 24 well-plates to a final cell density of 4 × 10^5 cells/well. After 24 h incubation, to assure cell adhesion to the wells, the medium was replaced by fresh media supplemented with 0.1% (v/v) DMSO, for vector control, 3.5 µM cisplatin, 0.1 µM Doxorubicin, or IC50 JHOR11. […] Pelleted cells were washed with wash buffer, resuspended in the same buffer and the percentage of fluorescent cells in each sample was immediately measured in an Attune focusing flow cytometer and respective software (Thermo Fisher Scientific).

[6] = tested on: normal human dermal fibroblasts; assay: Wound scratch assay; format: cell-based; conditions: 24 h, IC50 of the complex, versus vector control
Description: Cell migration is an essential process for tumor progression, being one of the major events that leads to cancer metastasis. To determine if JHOR11 inhibits cell tumorigenicity, the cell migration ability was analyzed by the wound scratch assay. […] The measure of the wound scratch after 0 h and 24 h allows the determination of the migration ability of the cells.
For wound scratch assay normal human dermal fibroblasts were seeded on […] tissue plates in a cell density of 4 × 10^5 cells/plate and incubated at 37 °C, 5% (v/v), 99% (v/v) relative humidity until reach confluence. A sterile micropipette tip was then used to make a scratch on the confluent monolayer and medium was replaced by fresh medium supplemented with IC50 JHOR11 or 0.1% (v/v) DMSO, as vector control.

[7] = tested on: BAX and BCL-2 protein expression in A2780 cells; conditions: A2780, 48 h, IC50 of JHOR11, normalized to DMSO control = 1
Description: The ratio between BAX and BCL-2 protein expression indicates the level of susceptibility of the cell to the intrinsic apoptotic pathway [26, 27, 28]. The BAX and BCL-2 protein expression was quantified by Western blot analysis to calculate the apoptotic index of cells after 48 h incubation with IC50 of JHOR11, using the quantification of β-actin as the internal control and 0.1% (v/v) DMSO as the vehicle control (Figure 4).
The apoptotic index was determined by quantification of BAX and BCL-2 protein expression by Western blot, as previously described [18]. Briefly, 4 × 10^6 cells were seeded on T-flasks with 25 cm^2 for 24 h and then the medium was replaced by a fresh medium supplemented with IC50 JHOR11, 0.1% (v/v) DMSO (vector control) or 0.1 µM doxorubicin (positive control). After 48 h incubation, cells were detached with a cell scraper and BAX, BCL-2 and β-actin proteins were quantified in a PVDF membrane [18]. The apoptotic ratio BAX/BCL-2 was calculated after normalization of the BAX and BCL-2 band intensity with respective β-actin band intensity and to the values of the DMSO-treated sample, measured using ImageJ2 software [41].

chicken embryo = assay: Ex ovo chorioallantoic membrane (CAM) assay
Description: Each chicken embryo was exposed to the IC50 of JHOR11 and 0.1% (v/v) DMSO as vector control and the number of vessels in each treated region was counted at 0 h, and after 24 h and 48 h incubation at 37 °C, as previously described [39].
The CAM assay was performed as previously described [18, 39, 43]. Fertilized eggs with 48 h incubation were opened and stabilized for 24 h in white weighing boats. Two silicone rings were positioned in each embryo and 40 mL IC50 JHOR11 in phosphate-buffered saline (PBS) or 0.1% (v/v) DMSO in PBS, as vector control, were placed in each o-ring. The region delimited by each o-ring was photographed at 0 h, 24 h, 48 h with a digital USB microscope camera (Opti-Tekscope OT-V1). The newly formed veins were counted using ImageJ as previously described [37], and values were presented after normalization with the values obtained for control sample.

Cc1ccc(C(C)C)cc1.F[P-](F)(F)(F)(F)F.O=C1C(=O)c2cccnc2-c2ncccc21.[Cl][Ru+] [JHOR11]
IC50 ([1]; 48 h incubation, MTS, read-out: Relative IC50, A2780): 1200 ± 100 nM
selective index in A2780 ([1]; relative to fibroblasts): 37.4
stability in solution by 1H NMR after 48 h [2]: the majority of the complex remained intact
JC-1 monomer/aggregate fluorescence ratio (A2780 cells [3]): decrease in the monomer/aggregate fluorescence ratio (but with no statistical significance)
cell cycle effect (A2780 cells [4]): slight increase in cells in G2/M phase
percentage of senescent cells (A2780 cells [5]): increased percentage of senescent cells
percentage of regeneration of the wound scratch [6]: no significant differences
apoptotic index (BAX/BCL-2 ratio) [7]: lower than 1
newly formed vessels (angiogenesis) (chicken embryo; IC50 of JHOR11, 24 h and 48 h, versus DMSO-treated regions): no anti- or pro-angiogenic effects
death of chicken embryos (chicken embryo; six embryos, 48 h, IC50 of JHOR11): did not induce the death
